In this experiment the target is T1, human CDK9/CyclinT kinase complex (Homo sapiens, UniProt P50750).
T1 construct: purchased Proqinase 0371-0345-1
Kind of experiment: In vitro CDK9/CyclinT assay (IMAP fluorescence polarization kinase assay). The format is biochemical. As to conditions: for IC50: 5 nM CDK9/CyclinT, 400 nM TAMRA-Rbtide, 12 μM ATP, 1 hour at room temperature, read-out: CDK9 inhibitory range. The method, then: In Vitro CDK9/CyclinT Assay
The activity of the compounds described in the present invention can be determined by the following kinase assay, which measures the phosphorylation of a fluorescently-labeled peptide by human CDK9/CyclinT kinase complex by fluorescent polarization using a commercially available IMAP Screening Express Assay Kit (Molecular devices).
CDK9 kinase assays were performed in low protein binding 384-well plates (Corning 3676). Test compounds were diluted in 100% DMSO to 5 mM stock concentration, then further dilutions were made in H2O or 100% DMSO to desirable concentrations.
Each reaction consisted of 5 nM enzyme: CDK9/CyclinT (Proqinase cat#0371-0345-1), 400 nM TAMRA-Rbtide (synthetic 15-mer peptide derived from human retinoblastoma tumor suppressor protein labelled with TAMRA dye, Genecust Europe), 12 μM ATP (=Kmapp, Sigma-Aldrich) and kinase buffer: 20 mM MOPS pH 7 (Sigma-Aldrich), 1 mM DTT (Sigma-Aldrich), 10 mM MgCl2 (Sigma-Aldrich), 0.01% Tween 20 (Sigma-Aldrich).
For each reaction, 4 or 6 μl containing TAMRA-Rbtide, ATP and kianse buffer were combined with 2 μl diluted compound in H2O or 0.028 μl compound in 100% DMSO. The kinase reaction was started by the addition of 2 μl diluted enzyme. The reaction was allowed to run for 1 hours at room temperature. The reaction was stopped by adding 15 μl IMAP beads (1:400 beads in progressive (100% buffer A) 1× buffer). After an additional 1 hours, fluorescent polarization (Ex: 550-10 nm, Em: 590-10 nm, Dich: 561 nm) was measured using an Analyst GT (Molecular devices).

SMILES strings stand for the structures. Counter-ions that a name gives are not always drawn. Bounds are passed on as bounds.

T1 sequence (P50750 whole entry): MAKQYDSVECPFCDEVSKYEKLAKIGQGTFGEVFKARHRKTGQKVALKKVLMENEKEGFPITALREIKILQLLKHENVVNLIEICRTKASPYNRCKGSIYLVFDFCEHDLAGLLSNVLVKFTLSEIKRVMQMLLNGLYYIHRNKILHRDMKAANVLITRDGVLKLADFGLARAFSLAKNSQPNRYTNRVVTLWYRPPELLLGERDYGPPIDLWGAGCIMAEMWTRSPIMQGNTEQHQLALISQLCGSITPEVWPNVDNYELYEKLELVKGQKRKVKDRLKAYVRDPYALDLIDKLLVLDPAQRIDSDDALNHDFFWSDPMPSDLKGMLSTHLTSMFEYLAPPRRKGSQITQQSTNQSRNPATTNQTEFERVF
T1 sequence (O60563 whole entry partner): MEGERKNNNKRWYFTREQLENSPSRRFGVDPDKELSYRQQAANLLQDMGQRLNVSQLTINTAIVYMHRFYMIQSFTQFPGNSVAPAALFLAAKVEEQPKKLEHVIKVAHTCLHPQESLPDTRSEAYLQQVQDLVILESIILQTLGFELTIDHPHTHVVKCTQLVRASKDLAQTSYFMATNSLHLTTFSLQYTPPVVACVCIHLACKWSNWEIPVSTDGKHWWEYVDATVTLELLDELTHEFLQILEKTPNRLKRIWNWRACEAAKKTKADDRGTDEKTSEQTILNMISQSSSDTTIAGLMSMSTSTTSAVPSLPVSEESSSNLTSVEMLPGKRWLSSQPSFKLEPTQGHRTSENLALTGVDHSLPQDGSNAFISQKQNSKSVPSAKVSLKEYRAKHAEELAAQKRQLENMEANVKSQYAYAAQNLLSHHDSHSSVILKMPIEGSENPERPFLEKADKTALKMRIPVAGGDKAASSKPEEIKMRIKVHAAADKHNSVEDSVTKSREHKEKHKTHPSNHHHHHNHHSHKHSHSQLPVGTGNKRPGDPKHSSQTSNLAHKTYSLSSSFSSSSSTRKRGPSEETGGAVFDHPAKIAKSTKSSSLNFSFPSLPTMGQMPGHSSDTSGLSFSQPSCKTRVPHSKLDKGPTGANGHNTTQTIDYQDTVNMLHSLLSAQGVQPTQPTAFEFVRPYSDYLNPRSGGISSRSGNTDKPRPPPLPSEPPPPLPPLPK

As to `COc1ccccc1-c1cc(Nc2cccc(CNS(=O)(=O)c3c(Cl)cccc3Cl)c2)ncn1` [Example 70, 2,6-Dichloro-N-{3-[6-(2-methoxy-phenyl)-pyrimidin-4-ylamino]-benzyl}-benzenesulfonamide], the IC50 was less than 1000 nM. On the same count and under the same terms, the same measure for `COc1ccc(COc2ccccc2-c2cc(Nc3ccc(CNS(C)(=O)=O)cc3)ncn2)cc1` [Example 50, N-(4-{6-[2-(4-Methoxy-benzyloxy)-phenyl]-pyrimidin-4-ylamino}-benzyl)-methanesulfonamide]: less than 1000 nM. On the same count and under the same terms, as for `COc1ccc(-c2cc(Nc3cccc(CNS(C)(=O)=O)c3)ncn2)c(OC)c1` [Example 24, N-{3-[6-(2,4-Dimethoxy-phenyl)-pyrimidin-4-ylamino]-benzyl}-methanesulfonamide], the figure is less than 1000 nM; as for `COc1ccccc1-c1cc(Nc2cccc(CNC(=O)c3ccc(F)cc3)c2)ncn1` [Example 84, 4-Fluoro-N-{3-[6-(2-methoxy-phenyl)-pyrimidin-4-ylamino]-benzyl}-benzamide], less than 1000 nM. As for `CS(=O)(=O)NCc1ccc(Nc2cc(-c3cccnc3)ncn2)cc1` [Example 52, N-[4-(6-Pyridin-3-yl-pyrimidin-4-ylamino)-benzyl]-methanesulfonamide], the IC50 is less than 10000 nM. Same read-out and setting: as for `CS(=O)(=O)NCc1cccc(Nc2cc(-c3ccccc3COc3ccc(OC(F)(F)F)cc3)ncn2)c1` [Example 30, N-(3-{6-[2-(4-Trifluoromethoxy-phenoxymethyl)-phenyl]-pyrimidin-4-ylamino}-benzyl)-methanesulfonamide], the figure is greater than 10000 nM; as for `CS(=O)(=O)NCc1ccc(Nc2cc(-c3ccccc3OCc3cccc(F)c3)ncn2)cc1` [Example 49, N-(4-{6-[2-(3-Fluoro-benzyloxy)-phenyl]-pyrimidin-4-ylamino}-benzyl)-methanesulfonamide], less than 1000 nM. Same read-out and setting: as for `CC(C)Oc1ccccc1-c1cc(Nc2cccc(Cn3cnc4ccccc43)c2)ncn1` [Example 80, (3-Benzoimidazol-1-ylmethyl-phenyl)-[6-(2-isopropoxy-phenyl)-pyrimidin-4-yl]-amine], the figure is less than 100 nM; as for `COc1ccccc1-c1cc(Nc2cccc(CNC(=O)Nc3ccc(F)cc3)c2)ncn1` [Example 85, 1-(4-Fluoro-phenyl)-3-{3-[6-(2-methoxy-phenyl)-pyrimidin-4-ylamino]-benzyl}-urea], less than 10000 nM; as for `CS(=O)(=O)NCc1cccc(Nc2cc(-c3ccc(O)cc3)ncn2)c1` [Example 75, N-{3-[6-(4-Hydroxy-phenyl)-pyrimidin-4-ylamino]-benzyl}-methanesulfonamide], less than 100 nM. Take `COc1ccccc1-c1cc(Nc2cccc(CNS(C)(=O)=O)c2)ncn1` [Example 6, N-{3-[6-(2-Methoxy-phenyl)-pyrimidin-4-ylamino]-benzyl}-methanesulfonamide]: the CDK9 inhibitory effect result is given as “nanomolar or low nanomolar range” and the IC50 is less than 100 nM. For `COc1ccccc1-c1cc(Nc2cccc(Cn3cnc4ccccc43)c2)ncn1` [Example 64, (3-Benzoimidazol-1-ylmethyl-phenyl)-[6-(2-methoxy-phenyl)-pyrimidin-4-yl]-amine] the same measures were “nanomolar or low nanomolar range” and less than 100 nM. In the case of `Oc1ccc(-c2cc(Nc3cccc(CNc4nc5ccccc5[nH]4)c3)ncn2)cc1` [Example 78, 4-(6-{3-[(1H-Benzoimidazol-2-ylamino)-methyl]-phenylamino}-pyrimidin-4-yl)-phenol], the IC50 was less than 1000 nM. Still for that read-out and setting: as for `Clc1cc(Nc2cccc(Cn3ccc4ccccc43)c2)ncn1` [Example 90, (6-Chloro-pyrimidin-4-yl)-(3-indol-1-ylmethyl-phenyl)-amine], the figure is greater than 10000 nM; as for `CS(=O)(=O)NCc1ccc(Nc2cc(-c3ccccc3Oc3ccccc3)ncn2)cc1` [Example 40, N-{4-[6-(2-Phenoxy-phenyl)-pyrimidin-4-ylamino]-benzyl}-methanesulfonamide], less than 1000 nM.

In the case of `COc1cccc(-c2cc(Nc3ccc(CNS(C)(=O)=O)cc3)ncn2)c1` [Example 47, N-{4-[6-(3-Methoxy-phenyl)-pyrimidin-4-ylamino]-benzyl}-methanesulfonamide], the IC50 was less than 10000 nM.

As for `C[S+]([O-])c1ccccc1-c1cc(Nc2cccc(CNS(C)(=O)=O)c2)ncn1` (stereo not drawn) [Example 29, N-{3-[6-(2-Methanesulfinyl-phenyl)-pyrimidin-4-ylamino]-benzyl}-methanesulfonamide], the IC50 was less than 10000 nM.

Turning to `COc1ccc(C)cc1-c1cc(Nc2cccc(CNS(C)(=O)=O)c2)ncn1` [Example 26, N-{3-[6-(2-Methoxy-5-methyl-phenyl)-pyrimidin-4-ylamino]-benzyl}-methanesulfonamide], the IC50 is less than 10000 nM. The same measure, in the same setting: the same measure for `CS(=O)(=O)NCc1cccc(Nc2cc(-c3ccccc3C(F)(F)F)ncn2)c1` [Example 18, N-{3-[6-(2-Trifluoromethyl-phenyl)-pyrimidin-4-ylamino]-benzyl}-methanesulfonamide]: greater than 10000 nM. Consider `COc1cc(Cl)ccc1-c1cc(Nc2ccc(CNS(C)(=O)=O)cc2)ncn1` [Example 54, N-{4-[6-(4-Chloro-2-methoxy-phenyl)-pyrimidin-4-ylamino]-benzyl}-methanesulfonamide], for which the CDK9 inhibitory effect result is “nanomolar or low nanomolar range” and the IC50 was less than 100 nM. With `COc1ccccc1-c1cc(Nc2cccc(Cn3ccc4ccccc43)c2)ncn1` [Example 91, (3-Indol-1-ylmethyl-phenyl)-[6-(2-methoxy-phenyl)-pyrimidin-4-yl]-amine], the IC50 is less than 10000 nM. Take `COc1ccccc1-c1cc(Nc2cccc(CNS(=O)(=O)c3cccs3)c2)ncn1` [Example 73, Thiophene-2-sulfonic acid 3-[6-(2-methoxy-phenyl)-pyrimidin-4-ylamino]-benzylamide]: the IC50 was less than 1000 nM. On the same count and under the same terms, the same measure for `COc1cccc(-c2cc(Nc3ccc(CNS(C)(=O)=O)cc3)ncn2)c1OC` [Example 55, N-{4-[6-(2,3-Dimethoxy-phenyl)-pyrimidin-4-ylamino]-benzyl}-methanesulfonamide]: less than 1000 nM. Regarding `COc1ccccc1-c1cc(Nc2ccc(CNS(C)(=O)=O)cc2)ncn1` [Example 34, N-{4-[6-(2-Methoxy-phenyl)-pyrimidin-4-ylamino]-benzyl}-methanesulfonamide], the IC50 is less than 1000 nM. As to `COc1cccc(F)c1-c1cc(Nc2cccc(CNS(C)(=O)=O)c2)ncn1` [Example 13, N-{3-[6-(2-Fluoro-6-methoxy-phenyl)-pyrimidin-4-ylamino]-benzyl}-methanesulfonamide], the CDK9 inhibitory effect result is listed as “nanomolar or low nanomolar range” and the IC50 is less than 100 nM. As for `Oc1cccc(-c2cc(Nc3cccc(Cn4cnc5ccccc54)c3)ncn2)c1` [Example 83, 3-[6-(3-Benzoimidazol-1-ylmethyl-phenylamino)-pyrimidin-4-yl]-phenol], the IC50 is less than 10000 nM.

Regarding `COc1ccccc1-c1cc(Nc2cccc(CN)c2)ncn1` [Example 69, (3-Aminomethyl-phenyl)-[6-(2-methoxy-phenyl)-pyrimidin-4-yl]-amine hydrochloride], the CDK9 inhibitory effect result is “nanomolar or low nanomolar range” and the IC50 was less than 100 nM. For the compound `CS(=O)(=O)NCc1ccc(Nc2cc(-c3ccc(O)cc3)ncn2)cc1` [Example 76, N-{4-[6-(4-Hydroxy-phenyl)-pyrimidin-4-ylamino]-benzyl}-methanesulfonamide], the IC50 is less than 1000 nM. On the same count and under the same terms, the same measure for `COc1ccc(-c2cc(Nc3cccc(CNS(C)(=O)=O)c3)ncn2)cc1` [Example 19, N-{3-[6-(4-Methoxy-phenyl)-pyrimidin-4-ylamino]-benzyl}-methanesulfonamide]: less than 10000 nM; for `CC(C)COc1ccccc1-c1cc(Nc2ccc(CNS(C)(=O)=O)cc2)ncn1` [Example 51, N-{4-[6-(2-Isobutoxy-phenyl)-pyrimidin-4-ylamino]-benzyl}-methanesulfonamide]: less than 1000 nM.

Consider `CCc1ccccc1-c1cc(Nc2cccc(CNS(C)(=O)=O)c2)ncn1` [Example 12, N-{3-[6-(2-Ethyl-phenyl)-pyrimidin-4-ylamino]-benzyl}-methanesulfonamide], for which the IC50 is less than 1000 nM. Still for that read-out and setting: as for `Clc1cc(Nc2cccc(Cn3cnc4ccccc43)c2)ncn1` [Example 63, (3-Benzoimidazol-1-ylmethyl-phenyl)-(6-chloro-pyrimidin-4-yl)-amine], the figure is less than 10000 nM; as for `CS(=O)(=O)NCc1ccc(Nc2cc(-c3cn[nH]c3)ncn2)cc1` [Example 58, N-{4-[6-(1H-Pyrazol-4-yl)-pyrimidin-4-ylamino]-benzyl}-methanesulfonamide], greater than 10000 nM. Still for that read-out and setting: the same measure for `CSc1ccccc1-c1cc(Nc2ccc(CNS(C)(=O)=O)cc2)ncn1` [Example 41, N-{4-[6-(2-Methylsulfanyl-phenyl)-pyrimidin-4-ylamino]-benzyl}-methanesulfonamide]: less than 1000 nM.
